The values below come from US11207312B2, “Metallo-beta-lactamase inhibitors and methods of use thereof” (priority 2017, dated 2021).

The target of one data set is NDM-1 (Klebsiella pneumoniae, UniProt C7C422). Description: biochemical. The class given is biochemical. Particulars: CCF2-FA fluorescence assay, 2 hours at 25° C. The procedure, abridged:
(§1)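 In pH 7 phosphate buffer (100 mM) with 10 μM ZnSO4 and 0.005% Tween-20, CCF2-FA hydrolysis (1.25 μM) by 1 pM NDM-1, 2 pM IMP-1 or 30 pM VIM-1 was run 2 h at 25° C with inhibitor from 20 to 0.00063 μM. Ex 405/em 460 nm signal fitted to a 4-parameter curve for IC50.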

The target of a further data set is IMP-1 (Serratia marcescens, UniProt P52699). Briefly: biochemical. The settings on record: CCF2-FA fluorescence assay, 2 hours at 25° C.; read-out: IMP1 IC50. The essentials:
as §1

For another data set, the target named is VIM-1 (Pseudomonas aeruginosa (strain ATCC 15692 / DSM 22644 / CIP 104116 / JCM 14847 / LMG 12228 / 1C / PRS 101 / PAO1), UniProt A0A0F7KYQ8). Briefly: biochemical. Particulars: CCF2-FA fluorescence assay, 2 hours at 25° C.; read-out: VIM1 IC50. The procedure, abridged: as §1
The next data set deals with VIM-2 (Escherichia coli, UniProt Q5U7L7). Description: biochemical. Particulars: CCF2-FA fluorescence assay; read-out: VIM2 IC50.
Data set [1] relates to Escherichia coli expressing NDM-1 (CLB30016). The class given is cell-based. Particulars: with imipenem 1 μg/ml; 95% inhibition of bacterial growth. The essentials:
(§2)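 Each strain, diluted 1:100 from saline suspension into 1.1× CAMHB, was combined with imipenem held at 1 μg/ml and graded inhibitor. Growth after 22–24 h at 35 °C was measured by absorbance, and the lowest concentration achieving 95% inhibition defined MITC95.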

In data set [2] the test system is Klebsiella pneumoniae expressing VIM-1 (IHMA599644). The class given is cell-based. Particulars: with imipenem 1 μg/ml; 95% inhibition of bacterial growth. The procedure, abridged: as §2
For data set [3], the system named is Serratia marcescens expressing IMP-1 (CL5741). The class given is cell-based. Particulars: with imipenem 1 μg/ml; 95% inhibition of bacterial growth. The procedure, abridged:
as §2

The test system of data set [4] is P. aeruginosa MB9798 (efflux+, IMP-1 plasmid). The settings on record: for MB9798 MITC95 P. aeruginosa uM Efflux WT: efflux + (MB9798) strain, imipenem at 2 μg/mL, in the presence of a class A, C, D serine β-lactamase inhibitor closely related to relebactam; for Efflux ratio: fold difference between efflux+ (MB9798) and efflux− (MB9799) strains. The essentials: (§3)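 PAO1-derived isogenic pair (oprD+, inducible AmpC), efflux+ MB5919 or efflux− MB5890 parent, carrying an electroporated IMP-1 plasmid from a clinical isolate. Microbroth MIC with fixed imipenem and/or ceftazidime (usually CLSI breakpoint) plus fixed class A/C inhibitor; MBL inhibitor serially titrated, concentration restoring susceptibility recorded.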

Data set [5] concerns P. aeruginosa MB9799 (efflux-, IMP-1 plasmid). In kind it is cell-based, Pseudomonas aeruginosa. Particulars: efflux − (MB9799) strain; imipenem at 2 μg/mL; in the presence of a class A, C, D serine β-lactamase inhibitor closely related to relebactam. The essentials:
as §3

IMP-1, sequence (P52699 whole entry, looked up, species assumed): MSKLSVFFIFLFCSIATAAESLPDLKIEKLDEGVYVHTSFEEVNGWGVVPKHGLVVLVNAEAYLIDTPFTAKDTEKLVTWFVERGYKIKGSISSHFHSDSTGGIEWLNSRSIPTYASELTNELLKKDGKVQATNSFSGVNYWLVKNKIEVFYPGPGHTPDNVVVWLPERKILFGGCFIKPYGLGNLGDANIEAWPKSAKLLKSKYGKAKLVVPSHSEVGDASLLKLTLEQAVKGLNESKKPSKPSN
NDM-1, sequence (C7C422 whole entry, looked up, species assumed): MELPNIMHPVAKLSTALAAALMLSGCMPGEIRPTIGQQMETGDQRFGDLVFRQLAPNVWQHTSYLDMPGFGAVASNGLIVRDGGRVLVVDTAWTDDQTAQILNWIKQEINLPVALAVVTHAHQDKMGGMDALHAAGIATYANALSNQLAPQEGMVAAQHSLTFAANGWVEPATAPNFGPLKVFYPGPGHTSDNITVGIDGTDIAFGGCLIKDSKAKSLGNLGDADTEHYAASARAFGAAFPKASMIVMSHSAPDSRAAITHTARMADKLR

With `CC1(CN)CCN(c2ccc(S(=O)(=O)NC[C@H](O)CN)c(S(N)(=O)=O)c2-c2nn[nH]n2)CC1` [Example 138, (R)-N1-(3-amino-2-hydroxypropyl)-4-(4-(aminomethyl)-4-methylpiperidin-1-yl)-3-(2H-tetrazol-5-yl)benzene-1,2-disulfonamide], the concentration for half-maximal inhibition (IC50) on NDM-1 worked out at 2.47 nM; on IMP-1, 6.91 nM; on VIM-1, 0.71 nM; on VIM-2, 10.3 nM. The “CLB30016 E. coli MITC95 NDM” value in data set [1] amounted to 1.56 µM. Further, the “IHMA599644 K. pneumoniae MITC95 VIM” value in data set [2] was determined as 1.56 µM. Further, the “CL5741 S. marcescens MITC95 IMP” value in [3] was 1.56 µM. The “MB9798 MITC95 P. aeruginosa uM Efflux WT” value in data set [4] was 1.56 µM. Also, the Efflux ratio in [4] is recorded as 2.00. Also, the “MB9799 MITC95 P. aeruginosa uM Efflux Mutant” value in data set [5] was 0.78 µM.
As for `NCC1CCCN(c2ccc(S(=O)(=O)NC[C@H](O)CN)c(S(N)(=O)=O)c2-c2nn[nH]n2)CC1` (stereo partly drawn) [Example 139, N1-((R)-3-amino-2-hydroxypropyl)-4-(4-(aminomethyl)azepan-1-yl)-3-(2H-tetrazol-5-yl)benzene-1,2-disulfonamide bis(2,2,2-trifluoroacetate)], the IC50 is 18.2 nM on NDM-1, 18.5 nM at IMP-1, 0.39 nM at VIM-1 and 4.52 nM on VIM-2. The “CLB30016 E. coli MITC95 NDM” value in data set [1] turned out to be 0.78 µM. Moreover, in data set [2], the “IHMA599644 K. pneumoniae MITC95 VIM” value amounted to 1.56 µM. Also, the “CL5741 S. marcescens MITC95 IMP” value in [3] was 0.78 µM. The “MB9798 MITC95 P. aeruginosa uM Efflux WT” value in data set [4] amounted to 1.56 µM. For the same compound, the Efflux ratio in data set [4] worked out at 2.00. In addition, the “MB9799 MITC95 P. aeruginosa uM Efflux Mutant” value in data set [5] is 0.78 µM.
In the case of `NCCC1CCCN(c2ccc(S(=O)(=O)NC[C@H](O)CN)c(S(N)(=O)=O)c2-c2nn[nH]n2)CC1` (stereo partly drawn) [Example 140, N1-((R)-3-amino-2-hydroxypropyl)-4-(4-(2-aminoethyl)azepan-1-yl)-3-(2H-tetrazol-5-yl)benzene-1,2-disulfonamide bis(2,2,2-trifluoroacetate)], the IC50 was found to be 3.75 nM against NDM-1, 6.34 nM on IMP-1, 0.1 nM on VIM-1 and 1.87 nM at VIM-2. In addition, in data set [1], the “CLB30016 E. coli MITC95 NDM” value was 1.56 µM. Also, in data set [2], the “IHMA599644 K. pneumoniae MITC95 VIM” value is 0.78 µM. Also, the “CL5741 S. marcescens MITC95 IMP” value in data set [3] came to 0.78 µM. In [4], the “MB9798 MITC95 P. aeruginosa uM Efflux WT” value is 1.56 µM. Moreover, the Efflux ratio in [4] turned out to be 2.00. Also, the “MB9799 MITC95 P. aeruginosa uM Efflux Mutant” value in [5] was 0.78 µM.
For the compound `NC[C@@H](O)CNS(=O)(=O)c1ccc(N2CCC3CNCC3C2)c(-c2nnn[nH]2)c1S(N)(=O)=O` (stereo partly drawn) [Example 141, N1-((R)-3-amino-2-hydroxypropyl)-4-(hexahydro-1H-pyrrolo[3,4-c]pyridin-5(6H)-yl)-3-(1H-tetrazol-5-yl)benzene-1,2-disulfonamide], the IC50 against NDM-1 came to 15.8 nM; on IMP-1 it was 11.9 nM; on VIM-1, 0.43 nM; on VIM-2, 15.7 nM. Besides, the “CLB30016 E. coli MITC95 NDM” value in data set [1] was determined as 1.56 µM. Also, the “IHMA599644 K. pneumoniae MITC95 VIM” value in data set [2] was determined as 1.56 µM. For the same compound, the “CL5741 S. marcescens MITC95 IMP” value in data set [3] worked out at 1.56 µM. Moreover, the “MB9798 MITC95 P. aeruginosa uM Efflux WT” value in data set [4] is 6.25 µM. Also, the Efflux ratio in data set [4] worked out at 4.00. In data set [5], the “MB9799 MITC95 P. aeruginosa uM Efflux Mutant” value worked out at 1.56 µM.
As for `NC[C@@H](O)CNS(=O)(=O)c1ccc(N2CCC(NCCO)CC2)c(-c2nn[nH]n2)c1S(N)(=O)=O` [Example 142, (R)-N1-(3-amino-2-hydroxypropyl)-4-(4-((2-hydroxyethyl)amino)piperidin-1-yl)-3-(2H-tetrazol-5-yl)benzene-1,2-disulfonamide bis(2,2,2-trifluoroacetate)], the IC50 was 7.59 nM on NDM-1, 5.95 nM at IMP-1, 0.42 nM on VIM-1 and 9.26 nM at VIM-2. The “CLB30016 E. coli MITC95 NDM” value in data set [1] stood at 0.39 µM. Further, the “IHMA599644 K. pneumoniae MITC95 VIM” value in data set [2] was determined as 1.56 µM. Also, the “CL5741 S. marcescens MITC95 IMP” value in data set [3] is 0.78 µM. The “MB9798 MITC95 P. aeruginosa uM Efflux WT” value in [4] was 0.78 µM. For the same compound, the Efflux ratio in data set [4] is 1.00. For the same compound, the “MB9799 MITC95 P. aeruginosa uM Efflux Mutant” value in data set [5] came to 0.78 µM.
As for `NC[C@@H](O)CNS(=O)(=O)c1ccc(N[C@H]2C[C@@H](N)C2)c(-c2nnn[nH]2)c1S(N)(=O)=O` [Example 143, N1-((R)-3-amino-2-hydroxypropyl)-4-(((1s,3S)-3-aminocyclobutyl)amino)-3-(1H-tetrazol-5-yl)benzene-1,2-disulfonamide], the IC50 against NDM-1 amounted to 111 nM; at IMP-1 it was 70.4 nM; on VIM-1 it was 100 nM; at VIM-2, 200 nM. Also, the “CLB30016 E. coli MITC95 NDM” value in data set [1] was found to be 1.56 µM. Besides, the “IHMA599644 K. pneumoniae MITC95 VIM” value in [2] stood at 12.50 µM. Further, the “CL5741 S. marcescens MITC95 IMP” value in data set [3] is 1.56 µM. In data set [4], the “MB9798 MITC95 P. aeruginosa uM Efflux WT” value was determined as 6.25 µM. Also, the Efflux ratio in [4] is on record as 2.00. In addition, the “MB9799 MITC95 P. aeruginosa uM Efflux Mutant” value in [5] worked out at 3.13 µM.
With `NCCC1CN(c2ccc(S(=O)(=O)NC[C@H](O)CN)c(S(N)(=O)=O)c2-c2nn[nH]n2)C1` [Example 144, (R)-N1-(3-amino-2-hydroxypropyl)-4-(3-(2-aminoethyl)azetidin-1-yl)-3-(2H-tetrazol-5-yl)benzene-1,2-disulfonamide], the IC50 at NDM-1 was determined as 111 nM; at IMP-1, 89.6 nM; on VIM-1, 4.23 nM; on VIM-2, 200 nM. For the same compound, in [1], the “CLB30016 E. coli MITC95 NDM” value was determined as 3.13 µM. The “IHMA599644 K. pneumoniae MITC95 VIM” value in [2] was found to be 3.13 µM. The “CL5741 S. marcescens MITC95 IMP” value in data set [3] was determined as 6.25 µM. The “MB9798 MITC95 P. aeruginosa uM Efflux WT” value in data set [4] amounted to 12.50 µM. In addition, in [4], the Efflux ratio is on record as 4.00. Besides, the “MB9799 MITC95 P. aeruginosa uM Efflux Mutant” value in [5] was found to be 3.13 µM.
As to `NCCC(=O)N1CCN(c2ccc(S(=O)(=O)NC[C@H](O)CN)c(S(N)(=O)=O)c2-c2nn[nH]n2)CC1` [Example 145, (R)—N1-(3-amino-2-hydroxypropyl)-4-(4-(3-aminopropanoyl)piperazin-1-yl)-3-(2H-tetrazol-5-yl)benzene-1,2-disulfonamide], the IC50 was 1.68 nM at NDM-1, 4.7 nM at IMP-1, 0.46 nM at VIM-1 and 8.32 nM on VIM-2. For the same compound, in [1], the “CLB30016 E. coli MITC95 NDM” value was found to be 0.39 µM. In addition, the “IHMA599644 K. pneumoniae MITC95 VIM” value in [2] was 1.56 µM. In data set [3], the “CL5741 S. marcescens MITC95 IMP” value was found to be 0.78 µM. The “MB9798 MITC95 P. aeruginosa uM Efflux WT” value in data set [4] came to 0.78 µM. In addition, the Efflux ratio in data set [4] is 1.00. Moreover, in data set [5], the “MB9799 MITC95 P. aeruginosa uM Efflux Mutant” value stood at 0.78 µM.
As for `NC[C@@H](O)CNS(=O)(=O)c1ccc(N2CCN(CCO)C(=O)C2)c(-c2nn[nH]n2)c1S(N)(=O)=O` [Example 146, (R)-N1-(3-amino-2-hydroxypropyl)-4-(4-(2-hydroxyethyl)-3-oxopiperazin-1-yl)-3-(2H-tetrazol-5-yl)benzene-1,2-disulfonamide], the IC50 was found to be 2.32 nM at NDM-1, 2.25 nM at IMP-1, 0.31 nM at VIM-1 and 1.77 nM on VIM-2. For the same compound, the “CLB30016 E. coli MITC95 NDM” value in data set [1] stood at 1.56 µM. Further, the “IHMA599644 K. pneumoniae MITC95 VIM” value in [2] was 6.25 µM. Besides, the “CL5741 S. marcescens MITC95 IMP” value in data set [3] stood at 3.13 µM. Besides, in data set [4], the “MB9798 MITC95 P. aeruginosa uM Efflux WT” value turned out to be 1.56 µM. In addition, the Efflux ratio in data set [4] is on record as 1.00. Moreover, in data set [5], the “MB9799 MITC95 P. aeruginosa uM Efflux Mutant” value came to 1.56 µM.
For the compound `NCCN1CCN(c2ccc(S(=O)(=O)NC[C@H](O)CN)c(S(N)(=O)=O)c2-c2nn[nH]n2)CC1=O` [Example 147, (R)-N1-(3-amino-2-hydroxypropyl)-4-(4-(2-aminoethyl)-3-oxopiperazin-1-yl)-3-(2H-tetrazol-5-yl)benzene-1,2-disulfonamide], the IC50 against NDM-1 was 27 nM; at IMP-1, 39.6 nM; at VIM-1, 0.28 nM; at VIM-2, 56.2 nM. The “CLB30016 E. coli MITC95 NDM” value in data set [1] was found to be 0.39 µM. In data set [2], the “IHMA599644 K. pneumoniae MITC95 VIM” value came to 1.56 µM. Moreover, the “CL5741 S. marcescens MITC95 IMP” value in data set [3] is 0.78 µM. In data set [4], the “MB9798 MITC95 P. aeruginosa uM Efflux WT” value was 3.13 µM. For the same compound, the Efflux ratio in [4] is reported as 4.00. Moreover, in data set [5], the “MB9799 MITC95 P. aeruginosa uM Efflux Mutant” value worked out at 0.78 µM.
